For one assay, the target named is T1, SYK kinase (Homo sapiens, UniProt P43405).
T1 construct: purchased Invitrogen, Carlsbad
Briefly: SYK Assay (OMNIA KINASE ASSAY, SOX peptide fluorescence). The format is biochemical. Particulars: apparent Ki calculated from the IC50 using the Cheng-Prusoff equation; 1 mM ATP, 30° C.; read-out: SYK Activities: Ki. The method, boiled down: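 Continuous Omnia assay: SYK phosphorylation of SOX-labelled Tyr 7 peptide (10 µM) with 1 mM ATP and 0.2 mM DTT at 30 °C. Fluorescence (ex 360/em 485 nm) read every 30 s for 30 min. Reaction velocity versus inhibitor concentration gives IC50, converted to apparent Ki by Cheng-Prusoff.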

For the next assay, the target named is MYLK (Homo sapiens, UniProt Q15746). As to the kind of experiment: MYLK Assay (LanthaScreen Eu Kinase Binding Assay). The conditions noted are these: 5 nM MYLK, 30 nM tracer 236, RT 1 h; read-out: MYLK Activities: IC50. As for the experimental part: In the assay LanthaScreen™ Eu Kinase Binding Assay by Invitrogen Corporation (Carlsbad) the effect of invention of a compound on the phosphorylation is determined by measurement of fluorescence intensity emission ratio based on the binding and displacement of a proprietary, Alexa Fluor® 647-labeled, ATP-competitive kinase inhibitor scaffold (kinase tracer) to the kinase of interest as described above.
To the wells of an 384 well small volume plate (Greiner, Frickenhausen) are added (i) the compound under test in 5% is DMSO/distilled water (5 μl), (ii) 5 μl of the kinase antibody mixture resulting in a final concentration 5 nM MYLK, 2 nM EU-Anti-GST antibody in 1× kinase buffer A. The reaction was started with addition of (iii) 5 μl resulting in a final concentration of 30 nM tracer 236. The assay plate was incubated at RT for 1 h and fluorescence intensity readings were collected using a TECAN M1000 at two wavelengths of λex 340/λem 615 nm and λex 340/λem 665 nm with a delay time of 100 μs and an integration time of 200 μs after 60 minutes. The emission ratio was calculated by division of the acceptor/tracer emission ([…]) by the antibody/donor emission ([…]). The inhibitor concentration was plotted versus the emission ratio to determine the IC50 using XLFit 5.0 (IDBS, Guildford) to fit to a sigmoidal dose response curve with a variable slope.
On the technique in general: In TR-FRET formats the signal depends on donor and acceptor labels being close together.

The target of the next assay is LRRK2 (Homo sapiens, UniProt Q5S007). As to the kind of experiment: LRRK2-LRRK2 G2019S-Assay (LanthaScreen Eu Kinase Binding Assay). Particulars: 5 nM LRRK2 or their mutants, 10 nM tracer 236, RT 1 h; read-out: LRRK2 Activities: IC50. The method, boiled down: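 TR-FRET tracer-displacement binding assay with 5 nM LRRK2 or mutant, 2 nM Eu-anti-GST antibody and 10 nM tracer 236 in kinase buffer A. Incubated 1 h at RT; 665/615 nm emission ratio read (ex 340 nm). IC50 from variable-slope sigmoidal fit.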
LRRK2, sequence (Q5S007 970-2527 limits assumed): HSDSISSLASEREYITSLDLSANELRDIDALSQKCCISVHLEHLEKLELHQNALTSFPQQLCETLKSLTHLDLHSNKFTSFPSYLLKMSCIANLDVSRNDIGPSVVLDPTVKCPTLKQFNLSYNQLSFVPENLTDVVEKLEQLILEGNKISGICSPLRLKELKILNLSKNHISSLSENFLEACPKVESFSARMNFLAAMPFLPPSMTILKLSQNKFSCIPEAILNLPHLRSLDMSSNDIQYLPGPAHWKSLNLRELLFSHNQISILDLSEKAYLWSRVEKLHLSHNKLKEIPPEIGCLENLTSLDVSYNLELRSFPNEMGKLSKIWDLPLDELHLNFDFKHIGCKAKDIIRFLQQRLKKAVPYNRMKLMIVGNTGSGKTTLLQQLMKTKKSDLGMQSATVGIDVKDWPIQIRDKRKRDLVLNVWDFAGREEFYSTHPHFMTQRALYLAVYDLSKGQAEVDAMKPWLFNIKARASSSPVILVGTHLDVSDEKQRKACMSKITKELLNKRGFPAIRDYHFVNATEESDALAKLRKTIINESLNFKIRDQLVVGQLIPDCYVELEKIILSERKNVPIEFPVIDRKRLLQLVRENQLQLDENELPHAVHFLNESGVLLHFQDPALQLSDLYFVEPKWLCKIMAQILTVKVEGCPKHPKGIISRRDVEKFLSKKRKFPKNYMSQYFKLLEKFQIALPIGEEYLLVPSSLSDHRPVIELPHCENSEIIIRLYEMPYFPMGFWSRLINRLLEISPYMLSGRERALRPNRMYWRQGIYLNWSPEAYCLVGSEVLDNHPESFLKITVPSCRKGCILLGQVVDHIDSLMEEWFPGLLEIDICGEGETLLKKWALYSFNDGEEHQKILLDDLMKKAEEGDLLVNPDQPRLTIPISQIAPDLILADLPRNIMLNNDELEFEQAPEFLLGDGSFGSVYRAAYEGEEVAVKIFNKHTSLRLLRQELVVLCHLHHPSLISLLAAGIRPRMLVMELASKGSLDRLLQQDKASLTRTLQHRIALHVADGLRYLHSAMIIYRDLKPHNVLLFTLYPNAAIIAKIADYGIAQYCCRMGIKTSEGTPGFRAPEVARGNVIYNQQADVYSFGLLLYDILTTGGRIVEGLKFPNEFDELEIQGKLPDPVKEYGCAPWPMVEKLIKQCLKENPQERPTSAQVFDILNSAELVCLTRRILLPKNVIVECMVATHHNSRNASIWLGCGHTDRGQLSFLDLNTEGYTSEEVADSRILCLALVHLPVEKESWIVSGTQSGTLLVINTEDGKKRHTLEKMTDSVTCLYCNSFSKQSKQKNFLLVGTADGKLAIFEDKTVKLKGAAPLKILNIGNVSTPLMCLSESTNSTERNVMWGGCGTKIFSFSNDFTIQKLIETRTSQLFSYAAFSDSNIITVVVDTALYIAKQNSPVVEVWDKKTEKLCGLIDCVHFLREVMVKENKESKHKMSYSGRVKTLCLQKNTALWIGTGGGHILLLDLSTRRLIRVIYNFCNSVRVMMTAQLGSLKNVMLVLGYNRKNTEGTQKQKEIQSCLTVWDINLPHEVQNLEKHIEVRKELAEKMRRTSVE

MYLK, sequence (Q15746 whole entry): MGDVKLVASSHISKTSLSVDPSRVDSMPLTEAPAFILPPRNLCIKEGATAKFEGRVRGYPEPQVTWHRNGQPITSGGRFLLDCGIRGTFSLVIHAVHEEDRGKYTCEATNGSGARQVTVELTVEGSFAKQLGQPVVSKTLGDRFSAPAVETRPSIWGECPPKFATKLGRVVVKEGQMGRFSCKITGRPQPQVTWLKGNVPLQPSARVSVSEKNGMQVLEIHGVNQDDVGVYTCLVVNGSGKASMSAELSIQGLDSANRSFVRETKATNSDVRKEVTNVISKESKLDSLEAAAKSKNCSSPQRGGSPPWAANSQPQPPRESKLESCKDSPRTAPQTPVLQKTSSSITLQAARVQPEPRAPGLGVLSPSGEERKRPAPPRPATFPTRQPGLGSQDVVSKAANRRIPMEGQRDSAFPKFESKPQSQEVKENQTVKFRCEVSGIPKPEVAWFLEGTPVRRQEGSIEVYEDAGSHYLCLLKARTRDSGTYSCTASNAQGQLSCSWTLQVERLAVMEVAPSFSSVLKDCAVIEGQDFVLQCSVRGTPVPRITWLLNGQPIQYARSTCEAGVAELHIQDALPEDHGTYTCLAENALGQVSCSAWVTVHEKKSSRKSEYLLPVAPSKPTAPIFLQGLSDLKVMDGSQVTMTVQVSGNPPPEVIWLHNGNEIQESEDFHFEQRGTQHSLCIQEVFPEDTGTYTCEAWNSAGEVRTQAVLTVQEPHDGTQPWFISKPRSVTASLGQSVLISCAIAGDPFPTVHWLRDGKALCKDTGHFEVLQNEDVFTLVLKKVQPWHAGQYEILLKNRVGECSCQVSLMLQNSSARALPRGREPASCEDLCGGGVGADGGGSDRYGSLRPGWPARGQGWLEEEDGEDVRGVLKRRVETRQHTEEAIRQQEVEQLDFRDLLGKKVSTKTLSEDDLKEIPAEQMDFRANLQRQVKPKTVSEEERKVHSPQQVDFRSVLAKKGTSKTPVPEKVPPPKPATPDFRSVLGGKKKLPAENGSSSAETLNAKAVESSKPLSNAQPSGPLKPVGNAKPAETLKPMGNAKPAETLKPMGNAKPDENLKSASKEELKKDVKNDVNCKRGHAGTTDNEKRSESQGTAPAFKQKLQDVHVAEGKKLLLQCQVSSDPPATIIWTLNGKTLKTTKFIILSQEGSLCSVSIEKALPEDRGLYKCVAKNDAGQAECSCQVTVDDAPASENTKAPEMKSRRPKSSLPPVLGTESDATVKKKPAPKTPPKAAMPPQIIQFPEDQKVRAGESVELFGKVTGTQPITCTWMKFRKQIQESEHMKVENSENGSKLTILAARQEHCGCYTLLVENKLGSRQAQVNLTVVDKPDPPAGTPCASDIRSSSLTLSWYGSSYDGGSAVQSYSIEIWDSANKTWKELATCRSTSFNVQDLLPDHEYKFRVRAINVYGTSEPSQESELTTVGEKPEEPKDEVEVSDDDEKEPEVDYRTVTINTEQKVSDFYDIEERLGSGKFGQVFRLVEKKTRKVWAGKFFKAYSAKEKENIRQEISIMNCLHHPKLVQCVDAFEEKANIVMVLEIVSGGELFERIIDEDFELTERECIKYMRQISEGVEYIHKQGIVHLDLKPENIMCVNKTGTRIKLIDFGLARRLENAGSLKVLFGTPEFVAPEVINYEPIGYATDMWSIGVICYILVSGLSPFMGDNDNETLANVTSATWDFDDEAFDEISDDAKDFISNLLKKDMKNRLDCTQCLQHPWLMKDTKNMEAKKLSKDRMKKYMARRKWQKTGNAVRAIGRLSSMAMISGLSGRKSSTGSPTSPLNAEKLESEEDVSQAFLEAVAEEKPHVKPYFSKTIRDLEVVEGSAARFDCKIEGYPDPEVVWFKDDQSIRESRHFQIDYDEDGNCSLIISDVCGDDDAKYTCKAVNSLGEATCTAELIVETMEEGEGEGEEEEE

Regarding `CN1CCN(c2ccc(Nc3nc(-c4nc5ccccc5s4)nc4cn[nH]c34)cc2)CC1` [Example #95, 5-(benzo[d]thiazol-2-yl)-N-(4-(4-methylpiperazin-1-yl)phenyl)-1H-pyrazolo[4,3-d]pyrimidin-7-amine], the Ki on SYK kinase was less than 0.01 µM. Moreover, the IC50 (as a rule, the concentration that inhibits the measured activity by half) at MYLK was less than 5 µM; on LRRK2, 0.01 to 0.1 µM.

Turning to `c1ccc2sc(-c3nc(Nc4ccc5c(c4)NCCO5)c4[nH]ncc4n3)nc2c1` [Example #97, N-(5-(benzo[d]thiazol-2-yl)-1H-pyrazolo[4,3-d]pyrimidin-7-yl)-3,4-dihydro-2H-benzo[b][1,4]oxazin-6-amine], the Ki at SYK kinase is 0.01 to 0.1 µM. The figures for the 50% inhibitory concentration (IC50) on MYLK and on LRRK2 were less than 5 µM and 0.1 to 1 µM, respectively.

For `CN1CCN(c2ccc(Nc3nc(-c4cccc(-c5cccnc5)c4)nc4cn[nH]c34)cc2)CC1` [Example #99, N-(4-(4-methylpiperazin-1-yl)phenyl)-5-(3-(pyridin-3-yl)phenyl)-1H-pyrazolo[4,3-d]pyrimidin-7-amine], at SYK kinase, the Ki was less than 0.01 µM. Further, the half-maximal inhibitory concentration (IC50) is less than 5 µM at MYLK and 0.1 to 1 µM on LRRK2.

With `CN(C)c1cccc(Nc2nc(-c3ccsc3)nc3cn[nH]c23)c1` [Example #114, N1,N1-dimethyl-N3-(5-(thiophen-3-yl)-1H-pyrazolo[4,3-d]pyrimidin-7-yl)benzene-1,3-diamine], the Ki at SYK kinase was 0.01 to 0.1 µM. Also, the values for the half-maximal inhibitory concentration (IC50) at MYLK and at LRRK2 were less than 5 µM and 0.1 to 1 µM, respectively.

Regarding `Nc1cccc(Nc2nc(-c3ccsc3)nc3cn[nH]c23)c1` [Example #117, N1-(5-(thiophen-3-yl)-1H-pyrazolo[4,3-d]pyrimidin-7-yl)benzene-1,3-diamine], the Ki at SYK kinase was less than 0.01 µM. Besides, the IC50 was less than 5 µM at MYLK and 0.01 to 0.1 µM at LRRK2.

On to `CN1CCN(c2ccc(Nc3nc(-c4ccsc4)nc4cn[nH]c34)cn2)CC1` [Example #118, N-(6-(4-methylpiperazin-1-yl)pyridin-3-yl)-5-(thiophen-3-yl)-1H-pyrazolo[4,3-d]pyrimidin-7-amine], for which the Ki at SYK kinase is less than 0.01 µM. Besides, the IC50 at MYLK was less than 5 µM; on LRRK2, 0.01 to 0.1 µM.

In the case of `CN(C)Cc1ccc(Nc2nc(-c3ccccc3)nc3cn[nH]c23)cc1` [Example #120, N-(4-((dimethylamino)methyl)phenyl)-5-phenyl-1H-pyrazolo[4,3-d]pyrimidin-7-amine], the Ki at SYK kinase is 0.01 to 0.1 µM. Besides, the values for the IC50 on MYLK and at LRRK2 were less than 5 µM and 0.1 to 1 µM, respectively.

Turning to `c1ccn2cc(-c3nc(Nc4ccc5cn[nH]c5c4)c4[nH]ncc4n3)nc2c1` [Example #127, 5-(imidazo[1,2-a]pyridin-2-yl)-N-(1H-indazol-6-yl)-1H-pyrazolo[4,3-d]pyrimidin-7-amine], the Ki at SYK kinase was 0.01 to 0.1 µM. In addition, the concentration for half-maximal inhibition (IC50) at MYLK is less than 5 µM; at LRRK2 it was 0.1 to 1 µM.

As to `COc1cccc(-c2nc(Nc3ccc(CN4CCN(C)CC4)cc3)c3[nH]ncc3n2)c1` [Example #131, 5-(3-methoxyphenyl)-N-(4-((4-methylpiperazin-1-yl)methyl)phenyl)-1H-pyrazolo[4,3-d]pyrimidin-7-amine], the Ki at SYK kinase was less than 0.01 µM. Further, the figures for the IC50 at MYLK and at LRRK2 were less than 5 µM and 0.1 to 1 µM, respectively.

Regarding `COc1cccc(-c2nc(Nc3ccc(CN4CCCC4)cc3)c3[nH]ncc3n2)c1` [Example #132, 5-(3-methoxyphenyl)-N-(4-(pyrrolidin-1-ylmethyl)phenyl)-1H-pyrazolo[4,3-d]pyrimidin-7-amine], the Ki at SYK kinase was less than 0.01 µM. Moreover, the values for the half-maximal inhibitory concentration (IC50) on MYLK and at LRRK2 were less than 5 µM and 0.1 to 1 µM, respectively.

Regarding `CN1CCN(C(=O)c2ccc(Nc3nc(-c4cccs4)nc4cn[nH]c34)cc2)CC1` [Example #134, (4-methylpiperazin-1-yl)(4-((5-(thiophen-2-yl)-1H-pyrazolo[4,3-d]pyrimidin-7-yl)amino)phenyl)methanone], at SYK kinase, the Ki is less than 0.01 µM. For the same compound, the results for the IC50 at MYLK and on LRRK2 were less than 5 µM and 0.1 to 1 µM, respectively.

In the case of `CC(=O)N1CCN(c2ccc(Nc3nc(-c4cccs4)nc4cn[nH]c34)cc2)CC1` [Example #138, 1-(4-(4-((5-(thiophen-2-yl)-1H-pyrazolo[4,3-d]pyrimidin-7-yl)amino)phenyl)piperazin-1-yl)ethan-1-one], the Ki on SYK kinase was less than 0.01 µM. Also, the concentration for half-maximal inhibition (IC50) on MYLK is less than 5 µM; at LRRK2, 0.1 to 1 µM.

Take `COc1cc(C(=O)N2CCC(N3CCN(C)CC3)CC2)ccc1Nc1nc(-c2cccs2)nc2cn[nH]c12` [Example #139, (3-methoxy-4-((5-(thiophen-2-yl)-1H-pyrazolo[4,3-d]pyrimidin-7-yl)amino)phenyl)(4-(4-methylpiperazin-1-yl)piperidin-1-yl)methanone]: at SYK kinase, the Ki is 0.01 to 0.1 µM. In addition, the concentration for half-maximal inhibition (IC50) is less than 5 µM at MYLK and 0.01 to 0.1 µM at LRRK2.

Consider `O=S1(=O)CCN(c2ccc(Nc3nc(-c4ccsc4)nc4cn[nH]c34)cc2)CC1` [Example #143, 4-(4-((5-(thiophen-3-yl)-1H-pyrazolo[4,3-d]pyrimidin-7-yl)amino)phenyl)thiomorpholine 1,1-dioxide], for which the Ki on SYK kinase was less than 0.01 µM. Also, the results for the concentration for half-maximal inhibition (IC50) at MYLK and at LRRK2 were less than 5 µM and 0.01 to 0.1 µM, respectively.

For `CC(=O)N1CCN(c2ccc(Nc3nc(-c4ccsc4)nc4cn[nH]c34)cc2)CC1` [Example #144, 1-(4-(4-((5-(thiophen-3-yl)-1H-pyrazolo[4,3-d]pyrimidin-7-yl)amino)phenyl)piperazin-1-yl)ethan-1-one], on SYK kinase, the Ki is less than 0.01 µM. The IC50 is less than 5 µM on MYLK and less than 0.01 µM on LRRK2.

As to `CN1CCN(C(=O)c2ccc(Nc3nc(-c4ccsc4)nc4cn[nH]c34)cc2)CC1` [Example #147, (4-methylpiperazin-1-yl)(4-((5-(thiophen-3-yl)-1H-pyrazolo[4,3-d]pyrimidin-7-yl)amino)phenyl)methanone], the Ki at SYK kinase was 0.01 to 0.1 µM. Moreover, the values for the IC50 at MYLK and at LRRK2 were less than 5 µM and 0.01 to 0.1 µM, respectively.

Turning to `CC(C)(C)N1CCN(c2ccc(Nc3nc(-c4ccsc4)nc4cn[nH]c34)cc2)CC1` [Example #161, N-(4-(4-(tert-butyl)piperazin-1-yl)phenyl)-5-(thiophen-3-yl)-1H-pyrazolo[4,3-d]pyrimidin-7-amine], on SYK kinase, the Ki is less than 0.01 µM. In addition, the figures for the IC50 at MYLK and on LRRK2 were less than 5 µM and 0.01 to 0.1 µM, respectively.

Regarding `CC(C)(C)N1CCN(c2ccc(Nc3nc(-c4cccs4)nc4cn[nH]c34)cc2)CC1` [Example #163, N-(4-(4-(tert-butyl)piperazin-1-yl)phenyl)-5-(thiophen-2-yl)-1H-pyrazolo[4,3-d]pyrimidin-7-amine], the Ki on SYK kinase was less than 0.01 µM. In addition, the IC50 was less than 5 µM at MYLK and 0.1 to 1 µM at LRRK2.

For `COc1ccc(-c2nc(Nc3ccc(N4CCN(C(C)(C)C)CC4)cc3)c3[nH]ncc3n2)cc1` [Example #172, N-(4-(4-(tert-butyl)piperazin-1-yl)phenyl)-5-(4-methoxyphenyl)-1H-pyrazolo[4,3-d]pyrimidin-7-amine], the Ki on SYK kinase is less than 0.01 µM. In addition, the figures for the IC50 on MYLK and at LRRK2 were less than 5 µM and 0.1 to 1 µM, respectively.

Turning to `CN1CCN(c2ccc(Nc3nc(-c4nccs4)nc4cn[nH]c34)cc2)CC1` [Example #179, N-(4-(4-methylpiperazin-1-yl)phenyl)-5-(thiazol-2-yl)-1H-pyrazolo[4,3-d]pyrimidin-7-amine], the Ki on SYK kinase was less than 0.01 µM. Besides, the values for the half-inhibitory concentration (IC50) on MYLK and on LRRK2 were less than 5 µM and 0.1 to 1 µM, respectively.

`CN1CCN(c2ccc(Nc3nc(-c4cccc(S(N)(=O)=O)c4)nc4cn[nH]c34)cc2)CC1` [Example #182, 3-(7-((4-(4-methylpiperazin-1-yl)phenyl)amino)-1H-pyrazolo[4,3-d]pyrimidin-5-yl)benzenesulfonamide]: the Ki at SYK kinase was less than 0.01 µM. For the same compound, the 50% inhibitory concentration (IC50) is less than 5 µM on MYLK and 0.01 to 0.1 µM at LRRK2.

Consider `CN1CCN(c2ccc(Nc3nc(-c4cccc(NS(C)(=O)=O)c4)nc4cn[nH]c34)cc2)CC1` [Example #187, N-(3-(7-((4-(4-methylpiperazin-1-yl)phenyl)amino)-1H-pyrazolo[4,3-d]pyrimidin-5-yl)phenyl)methanesulfonamide], for which, on SYK kinase, the Ki is less than 0.01 µM. Besides, the figures for the IC50 on MYLK and on LRRK2 were less than 5 µM and 0.1 to 1 µM, respectively.

In the case of `CS(=O)(=O)Nc1cccc(-c2nc(Nc3ccc(N4CCNCC4)cc3)c3[nH]ncc3n2)c1` [Example #188, N-(3-(7-((4-(piperazin-1-yl)phenyl)amino)-1H-pyrazolo[4,3-d]pyrimidin-5-yl)phenyl)methanesulfonamide], at SYK kinase, the Ki is less than 0.01 µM. The IC50 on MYLK was less than 5 µM; on LRRK2, 0.1 to 1 µM.
